# From BindingDB's records for doi:10.7270/Q2JD4V5T (Burnham Center for Chemical Genomics, 2008)
# Biological target: not listed separately
# Assay: PLAP enzyme activity inhibition – biochemical, colorimetric, counter-screen, dose response (AID 779)
row,IC50 [µM],Compound
1,> 50,O=C1/C(=C\c2nc3ccccc3[nH]2)SC(=S)N1c1ccc(F)cc1 [SMR000163732]

# Biological target: Ephrin type-A receptor 4 (Mus musculus, UniProt Q03137)
# Assay: as above
# Sequence of Ephrin type-A receptor 4 (Q03137 whole entry): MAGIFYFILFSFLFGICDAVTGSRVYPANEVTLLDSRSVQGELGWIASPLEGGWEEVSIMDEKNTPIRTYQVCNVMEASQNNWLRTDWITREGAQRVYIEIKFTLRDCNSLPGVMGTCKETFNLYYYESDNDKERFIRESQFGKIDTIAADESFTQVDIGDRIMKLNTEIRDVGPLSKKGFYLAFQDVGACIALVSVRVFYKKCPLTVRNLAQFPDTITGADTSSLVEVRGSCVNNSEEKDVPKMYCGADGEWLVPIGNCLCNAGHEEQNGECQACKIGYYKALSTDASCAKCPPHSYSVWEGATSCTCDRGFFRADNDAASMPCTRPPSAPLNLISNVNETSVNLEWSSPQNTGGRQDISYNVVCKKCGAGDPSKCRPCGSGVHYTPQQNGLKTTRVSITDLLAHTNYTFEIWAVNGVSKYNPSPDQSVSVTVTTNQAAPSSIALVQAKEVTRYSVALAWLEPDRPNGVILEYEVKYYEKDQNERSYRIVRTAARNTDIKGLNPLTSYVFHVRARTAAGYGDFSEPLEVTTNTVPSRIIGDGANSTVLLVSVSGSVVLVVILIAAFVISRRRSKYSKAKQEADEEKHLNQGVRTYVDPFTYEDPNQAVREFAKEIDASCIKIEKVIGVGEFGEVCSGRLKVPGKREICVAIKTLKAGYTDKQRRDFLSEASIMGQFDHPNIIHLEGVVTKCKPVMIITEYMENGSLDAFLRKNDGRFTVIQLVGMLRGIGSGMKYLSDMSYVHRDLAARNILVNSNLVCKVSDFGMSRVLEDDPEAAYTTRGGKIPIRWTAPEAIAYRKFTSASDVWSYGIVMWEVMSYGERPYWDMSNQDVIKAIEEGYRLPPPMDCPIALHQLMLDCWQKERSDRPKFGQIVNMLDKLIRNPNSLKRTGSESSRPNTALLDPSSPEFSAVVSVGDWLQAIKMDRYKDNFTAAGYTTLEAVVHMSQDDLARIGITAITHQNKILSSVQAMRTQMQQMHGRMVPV
row,IC50 [µM],Compound
1,> 50,CCCCN(CCCC)c1nc2ccccc2nc1C(C#N)C(=O)OCC (stereo unspecified) [(2Z)-2-cyano-2-[3-(dibutylamino)-1H-quinoxalin-2-ylidene]acetic acid ethyl ester]
2,> 50,"CC(CC(=O)c1ccccc1)N=Nc1nc2ccccc2s1 (stereo unspecified) [(E)-3-(1,3-benzothiazol-2-ylhydrazo)-1-phenyl-2-buten-1-one]"
3,> 50,Cc1ccc(Cl)cc1-n1c(C)nc(Cc2ccc([N+](=O)[O-])cc2)c1O [MLS000519000]
4,> 50,"CCN1C(=O)C(C=NN=Cc2ccccc2)c2ccc(C3=NNC(=O)CC3)cc21 (stereo unspecified) [benzaldehyde {[1-ethyl-2-oxo-6-(6-oxo-1,4,5,6-tetrahydro-3-pyridazinyl)-1,2-dihydro-3H-indol-3-ylidene]methyl}hydrazone]"

row,Compound,IC50 [µM]
1,CCCCOP(=O)(OCCCC)C(C#N)C(C)=O (stereo unspecified) [(Z)-2-dibutoxyphosphoryl-3-hydroxy-2-butenenitrile],> 50
